Assay results taken from US6489469B1, “Method for storing or transporting erythritol solution” (Nikken Chemicals Co., Ltd., priority 1999, dated 2002).

How the values were obtained:
[1] = system: Penicillium funiculosum IFO 6345; assay: Viable Count of Penicillium funiculosum IFO 6345 in Erythritol Solution; type: cell-based
Method: (§1) Erythritol solutions of respective concentrations in the range of from 30 to 60% were prepared. To these were inoculated Staphylococcus aureus IFO 13276, Bacillus subtilis IFO 3134, and Escherichia coli IFO 3972 as bacteria, Candida albicans IFO 1549 and Saccharomyces cerevisiae ATCC 9763 as yeasts, Aspergillus niger IFO 6342, Aspergillus flavus IFO 6343, and Penicillium funiculosum IFO 6345 as fungi, respectively, in a population (concentration) of 10,000 cells/mL or more. After the inoculation, the solutions were stored at 30, 37, 45, 50, or 60° C., respectively, for 56 days and the number of viable cell was determined daily. The determination of the number of viable cell was performed by a method of coating 0.1 mL of appropriately diluted sample cultivation on an agar plate and cultivating and counting the number of viable cell (the number of colony) that grew after the cultivation.

[2] = system: Candida albicans IFO 1549; assay: Viable Count of Candida albicans IFO 1549 in Erythritol Solution; type: cell-based
Method: as §1

## OC[C@@H](O)[C@@H](O)CO [Erythritol Solution, erythritol]
[1]; 37° C., 30% w/w, Day 0
  The Number of Viable Cell: ≥ 10000 cells/mL
[1]; 37° C., 30% w/w, Day 3
  The Number of Viable Cell: ≥ 10000 cells/mL
[1]; 37° C., 30% w/w, Day 7
  The Number of Viable Cell: ≥ 10000 cells/mL
[1]; 37° C., 30% w/w, Day 14
  The Number of Viable Cell: ≥ 10000 cells/mL
[1]; 37° C., 30% w/w, Day 28
  The Number of Viable Cell: ≥ 10000 cells/mL
[1]; 37° C., 30% w/w, Day 56
  The Number of Viable Cell: ≥ 10000 cells/mL
[1]; 37° C., 40% w/w, Day 0
  The Number of Viable Cell: ≥ 10000 cells/mL
[1]; 37° C., 40% w/w, Day 3
  The Number of Viable Cell: ≥ 10000 cells/mL
[1]; 37° C., 40% w/w, Day 7
  The Number of Viable Cell: ≥ 10000 cells/mL
[1]; 37° C., 40% w/w, Day 14
  The Number of Viable Cell: ≥ 10000 cells/mL
[1]; 37° C., 40% w/w, Day 28
  The Number of Viable Cell: ≥ 10000 cells/mL
[1]; 37° C., 40% w/w, Day 56
  The Number of Viable Cell: ≥ 10000 cells/mL
[1]; 45° C., 30% w/w, Day 0
  The Number of Viable Cell: ≥ 10000 cells/mL
[1]; 45° C., 30% w/w, Day 3
  The Number of Viable Cell: 370 cells/mL
[1]; 45° C., 30% w/w, Day 7
  The Number of Viable Cell: 0 cells/mL
[1]; 45° C., 30% w/w, Day 14
  The Number of Viable Cell: 0 cells/mL
[1]; 45° C., 30% w/w, Day 28
  The Number of Viable Cell: 0 cells/mL
[1]; 45° C., 30% w/w, Day 56
  The Number of Viable Cell: 0 cells/mL
[1]; 45° C., 40% w/w, Day 0
  The Number of Viable Cell: ≥ 10000 cells/mL
[1]; 45° C., 40% w/w, Day 3
  The Number of Viable Cell: 750 cells/mL
[1]; 45° C., 40% w/w, Day 7
  The Number of Viable Cell: 0 cells/mL
[1]; 45° C., 40% w/w, Day 14
  The Number of Viable Cell: 0 cells/mL
[1]; 45° C., 40% w/w, Day 28
  The Number of Viable Cell: 0 cells/mL
[1]; 45° C., 40% w/w, Day 56
  The Number of Viable Cell: 0 cells/mL
[1]; 45° C., 50% w/w, Day 0
  The Number of Viable Cell: ≥ 10000 cells/mL
[1]; 45° C., 50% w/w, Day 3
  The Number of Viable Cell: 1260 cells/mL
[1]; 45° C., 50% w/w, Day 7
  The Number of Viable Cell: 0 cells/mL
[1]; 45° C., 50% w/w, Day 14
  The Number of Viable Cell: 0 cells/mL
[1]; 45° C., 50% w/w, Day 28
  The Number of Viable Cell: 0 cells/mL
[1]; 45° C., 50% w/w, Day 56
  The Number of Viable Cell: 0 cells/mL
[1]; 50° C., 30% w/w, Day 0
  The Number of Viable Cell: ≥ 10000 cells/mL
[1]; 50° C., 30% w/w, Day 3
  The Number of Viable Cell: 0 cells/mL
[1]; 50° C., 30% w/w, Day 7
  The Number of Viable Cell: 0 cells/mL
[1]; 50° C., 30% w/w, Day 14
  The Number of Viable Cell: 0 cells/mL
[1]; 50° C., 30% w/w, Day 28
  The Number of Viable Cell: 0 cells/mL
[1]; 50° C., 30% w/w, Day 56
  The Number of Viable Cell: 0 cells/mL
[1]; 50° C., 40% w/w, Day 0
  The Number of Viable Cell: ≥ 10000 cells/mL
[1]; 50° C., 40% w/w, Day 3
  The Number of Viable Cell: 0 cells/mL
[1]; 50° C., 40% w/w, Day 7
  The Number of Viable Cell: 0 cells/mL
[1]; 50° C., 40% w/w, Day 14
  The Number of Viable Cell: 0 cells/mL
[1]; 50° C., 40% w/w, Day 28
  The Number of Viable Cell: 0 cells/mL
[1]; 50° C., 40% w/w, Day 56
  The Number of Viable Cell: 0 cells/mL
[1]; 50° C., 50% w/w, Day 0
  The Number of Viable Cell: ≥ 10000 cells/mL
[1]; 50° C., 50% w/w, Day 3
  The Number of Viable Cell: 0 cells/mL
[1]; 50° C., 50% w/w, Day 7
  The Number of Viable Cell: 0 cells/mL
[1]; 50° C., 50% w/w, Day 14
  The Number of Viable Cell: 0 cells/mL
[1]; 50° C., 50% w/w, Day 28
  The Number of Viable Cell: 0 cells/mL
[1]; 50° C., 50% w/w, Day 56
  The Number of Viable Cell: 0 cells/mL
[1]; temperature of 50° C. or more
  growth of the microbes: prevented from growing
  time after which microbes died: 3 days
[2]; 37° C., 30% w/w, Day 0
  The Number of Viable Cell: ≥ 10000 cells/mL
[2]; 37° C., 30% w/w, Day 3
  The Number of Viable Cell: ≥ 10000 cells/mL
[2]; 37° C., 30% w/w, Day 7
  The Number of Viable Cell: ≥ 10000 cells/mL
[2]; 37° C., 30% w/w, Day 14
  The Number of Viable Cell: ≥ 10000 cells/mL
[2]; 37° C., 30% w/w, Day 28
  The Number of Viable Cell: ≥ 10000 cells/mL
[2]; 37° C., 30% w/w, Day 56
  The Number of Viable Cell: ≥ 10000 cells/mL
[2]; 37° C., 40% w/w, Day 0
  The Number of Viable Cell: ≥ 10000 cells/mL
[2]; 37° C., 40% w/w, Day 3
  The Number of Viable Cell: ≥ 10000 cells/mL
[2]; 37° C., 40% w/w, Day 7
  The Number of Viable Cell: ≥ 10000 cells/mL
[2]; 37° C., 40% w/w, Day 14
  The Number of Viable Cell: ≥ 10000 cells/mL
[2]; 37° C., 40% w/w, Day 28
  The Number of Viable Cell: ≥ 10000 cells/mL
[2]; 37° C., 40% w/w, Day 56
  The Number of Viable Cell: ≥ 10000 cells/mL
[2]; 45° C., 30% w/w, Day 0
  The Number of Viable Cell: ≥ 10000 cells/mL
[2]; 45° C., 30% w/w, Day 3
  The Number of Viable Cell: 190 cells/mL
[2]; 45° C., 30% w/w, Day 7
  The Number of Viable Cell: 0 cells/mL
[2]; 45° C., 30% w/w, Day 14
  The Number of Viable Cell: 0 cells/mL
[2]; 45° C., 30% w/w, Day 28
  The Number of Viable Cell: 0 cells/mL
[2]; 45° C., 30% w/w, Day 56
  The Number of Viable Cell: 0 cells/mL
[2]; 45° C., 40% w/w, Day 0
  The Number of Viable Cell: ≥ 10000 cells/mL
[2]; 45° C., 40% w/w, Day 3
  The Number of Viable Cell: 0 cells/mL
[2]; 45° C., 40% w/w, Day 7
  The Number of Viable Cell: 0 cells/mL
[2]; 45° C., 40% w/w, Day 14
  The Number of Viable Cell: 0 cells/mL
[2]; 45° C., 40% w/w, Day 28
  The Number of Viable Cell: 0 cells/mL
[2]; 45° C., 40% w/w, Day 56
  The Number of Viable Cell: 0 cells/mL
[2]; 45° C., 50% w/w, Day 0
  The Number of Viable Cell: ≥ 10000 cells/mL
[2]; 45° C., 50% w/w, Day 3
  The Number of Viable Cell: 0 cells/mL
[2]; 45° C., 50% w/w, Day 7
  The Number of Viable Cell: 0 cells/mL
[2]; 45° C., 50% w/w, Day 14
  The Number of Viable Cell: 0 cells/mL
[2]; 45° C., 50% w/w, Day 28
  The Number of Viable Cell: 0 cells/mL
[2]; 45° C., 50% w/w, Day 56
  The Number of Viable Cell: 0 cells/mL
[2]; 50° C., 30% w/w, Day 0
  The Number of Viable Cell: ≥ 10000 cells/mL
[2]; 50° C., 30% w/w, Day 3
  The Number of Viable Cell: 0 cells/mL
[2]; 50° C., 30% w/w, Day 7
  The Number of Viable Cell: 0 cells/mL
[2]; 50° C., 30% w/w, Day 14
  The Number of Viable Cell: 0 cells/mL
[2]; 50° C., 30% w/w, Day 28
  The Number of Viable Cell: 0 cells/mL
[2]; 50° C., 30% w/w, Day 56
  The Number of Viable Cell: 0 cells/mL
[2]; 50° C., 40% w/w, Day 0
  The Number of Viable Cell: ≥ 10000 cells/mL
[2]; 50° C., 40% w/w, Day 3
  The Number of Viable Cell: 0 cells/mL
[2]; 50° C., 40% w/w, Day 7
  The Number of Viable Cell: 0 cells/mL
[2]; 50° C., 40% w/w, Day 14
  The Number of Viable Cell: 0 cells/mL
[2]; 50° C., 40% w/w, Day 28
  The Number of Viable Cell: 0 cells/mL
[2]; 50° C., 40% w/w, Day 56
  The Number of Viable Cell: 0 cells/mL
[2]; 50° C., 50% w/w, Day 0
  The Number of Viable Cell: ≥ 10000 cells/mL
[2]; 50° C., 50% w/w, Day 3
  The Number of Viable Cell: 0 cells/mL
[2]; 50° C., 50% w/w, Day 7
  The Number of Viable Cell: 0 cells/mL
[2]; 50° C., 50% w/w, Day 14
  The Number of Viable Cell: 0 cells/mL
[2]; 50° C., 50% w/w, Day 28
  The Number of Viable Cell: 0 cells/mL
[2]; 50° C., 50% w/w, Day 56
  The Number of Viable Cell: 0 cells/mL
[2]; temperature of 50° C. or more
  growth of the microbes: prevented from growing
  time after which microbes died: 3 days
